Patent US11613785B2, “Predictive and diagnostic methods for prostate cancer” (OnkosXcel Therapeutics, LLC, priority 2017, dated 2023)

Columns and labels:
[1] = test system: NK cells, macrophages, FoxP3+ Tregs in tumor; assay: Immunophenotyping of tumor samples by RT-PCR; format: in vivo; conditions: TRAMP mouse tumor samples
Procedure: Immunophenotyping of tumor samples by RT-PCR: Tumor RNA samples are extracted from the frozen tumor tissues using the Trizol reagent. Reverse transcription is carried out using a kit from Takara (Catalog No. #RR047A). Quantitative PCR are conducted using a master mix from Invitrogen (Catalog No. #4309155) on an ABI 7900HT Fast Real-Time PCR System. The results are analyzed using a Delta Ct Method. The marker gene and respective oligo sequence used in this study are from the NIH q-RT-PCR primer database (mouseqprimerdepot.nih.gov) these are associated with the Ncrl and Pfrl (NK cell receptor) a marker characteristic to the NK cell and their activation respectively, while the Gmbz is meant for quantifying the release of granzyme B and the FoxP3 associated with CD25+CD4+ Tregs. Statistical Analysis: A one-way ANOVA is also used to assess the statistical difference between the vehicle group and all other groups in the blood sample immune-phenotyping and q-RT-PCR assay as well as on the microarray samples on the indicated day. All the data is analyzed using GraphPad Prism 5. p<0.05 is statistically significant (*, p<0.05; **, p<0.01; ***, p<0.001).

[2] = test system: TRAMP mouse model of NEPC; assay: Efficacy study (tumor volume) in transgenic mouse model of NEPC (TRAMP mouse); format: in vivo; conditions: TRAMP mice; talabostat mesylate 20 μg qd p.o.; PD-1 antagonist 10 mg/kg i.p. twice weekly
Text: Efficacy Study of Talabostat Mesylate and PD-1 Antagonist in Transgenic Mouse Model of NEPC (TRAMP Mouse)
Reagents and Antibodies: RPMI-1640 medium (Catalog No.: A1049101), Glutamax (Catalog No.: 35050061), Trypsin-EDTA (0.25%) (Catalog No.: 25200-056), Penicillin-Streptomycin (Catalog No.: 15070-063), HBSS (Catalog No.: 14175-095) are procured form Gibco, while Fetal bovine serum (FBS) (Catalog No.: 004-001-1A) is purchased from Biological Industries. The anti-PD-1 antibody (PD-1 antagonist (clone: RMPI-14, Catalog no: BE0146)) is supplied by Bioxcell at 6.61 mg/ml. Stock solutions of PD-1 antagonist, at 1 mg/ml concentrations are prepared and kept at 4° C. prior to use. Dosing solutions of PD-1 antagonist are prepared freshly at a concentration of 1 mg/ml, before every administration in sterile phosphate buffered saline (PBS), pH 7.0 and administered a dose of 10 mg/kg, intraperitoneally (i.p) into, 20 g mouse. […]
Tumor size and body weights are measured twice weekly. Tumor volumes are measured twice per week in two dimensions using a caliper, and the volume are expressed in mm^3 using the formula: V=0.5 a×b^2 where a and b are the length and width of the tumor, respectively. […] Tumor volume is expressed in mm^3, is measured with caliper on day 5, 8, 12, 15, 19, 22, 26 and day 29.

talabostat mesylate
FoxP3+ Treg population (relative mRNA expression of FoxP3) in tumor samples [1]: reduction in the FoxP3 population
tumor reduction (tumor volume) [2]: significant effect
